Key:
[1] = target: Vibro cholerae neuraminidase (Vibrio cholerae serotype O1, UniProt P0C6E9); experiment: biochemical; assay type: biochemical; conditions: for inhibitory effect on neuraminidase activity: pH 6.5
[2] = target: T1, Athrobacter ureafaciens neuraminidase (Paenarthrobacter ureafaciens, UniProt Q5W7Q2); assay type: biochemical; conditions: pH 6.5
T1 sequence (Q5W7Q2 39-990): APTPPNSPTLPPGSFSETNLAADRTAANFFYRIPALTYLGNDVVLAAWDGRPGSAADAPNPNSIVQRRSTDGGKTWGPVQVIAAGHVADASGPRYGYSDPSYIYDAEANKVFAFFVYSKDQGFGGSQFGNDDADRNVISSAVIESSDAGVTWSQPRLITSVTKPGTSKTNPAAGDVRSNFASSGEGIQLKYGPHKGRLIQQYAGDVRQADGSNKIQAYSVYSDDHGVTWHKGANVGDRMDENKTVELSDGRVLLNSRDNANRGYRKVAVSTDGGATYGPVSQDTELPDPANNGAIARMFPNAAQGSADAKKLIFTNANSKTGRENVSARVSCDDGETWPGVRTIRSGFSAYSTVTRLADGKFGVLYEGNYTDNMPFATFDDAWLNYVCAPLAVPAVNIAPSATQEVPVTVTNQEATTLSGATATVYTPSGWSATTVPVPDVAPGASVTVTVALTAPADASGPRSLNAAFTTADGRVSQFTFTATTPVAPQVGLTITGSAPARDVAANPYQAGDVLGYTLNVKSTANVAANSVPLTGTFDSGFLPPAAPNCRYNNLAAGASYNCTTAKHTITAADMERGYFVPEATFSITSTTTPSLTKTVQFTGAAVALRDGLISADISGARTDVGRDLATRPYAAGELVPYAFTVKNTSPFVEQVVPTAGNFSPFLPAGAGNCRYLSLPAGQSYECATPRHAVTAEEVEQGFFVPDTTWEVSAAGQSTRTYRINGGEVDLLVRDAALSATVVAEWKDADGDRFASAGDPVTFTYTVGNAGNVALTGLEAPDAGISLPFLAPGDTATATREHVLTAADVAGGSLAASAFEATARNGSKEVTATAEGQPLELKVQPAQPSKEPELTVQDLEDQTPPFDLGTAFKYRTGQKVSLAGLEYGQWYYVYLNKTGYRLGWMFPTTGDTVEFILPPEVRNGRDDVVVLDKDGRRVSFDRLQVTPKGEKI

[3] = target: Clostridium perfringens neuraminidase (Clostridium perfringens, UniProt P10481); assay type: biochemical; conditions: pH 6.5
[4] = system: influenza A virus (A/WSN/33); experiment: ELISA virus capture on streptavidin coated plate; assay type: binding
[5] = target: T1, Athrobacter ureafaciens neuraminidase; experiment: Western blot analysis of covalent binding (biotinylation) of neuraminidase; conditions: 200 μM, 4° C., ammonium acetate buffer 100 mM; bands of 88, 66 and 52 KDa
[6] = target: Bovine serum albumin (BSA) (Bos taurus, UniProt P02769); experiment: Western blot analysis, negative control protein; assay type: binding; conditions: BSA 0.65 μg/μl with 200 μM, 4° C.
[7] = system: Japanese encephalitis virus (JEV); experiment: ELISA selective capturing experiment; assay type: binding; conditions: mixture of influenza A virus and JEV; anti-JEV antibody
influenza A virus = experiment: ELISA capturing experiment with neuraminidase active site blocked by zanamivir; assay type: binding; conditions: compound 1 667 μM, zanamivir 67 μM pre-incubation 45 minutes, 9×10^3 PFU, optical density
[8] = target: T2, influenza A virus neuraminidase (Influenza A virus, UniProt P03470); experiment: biochemical; assay type: biochemical, influenza A virus (A/WSN/33)
T2 construct: pre-incubated for 45 minutes with influenza A virus (A/WSN/33; 9×10^3 PFU); host or cells: whole virus particles (PFU-titred virus stock)
T2 sequence (P03470 whole entry): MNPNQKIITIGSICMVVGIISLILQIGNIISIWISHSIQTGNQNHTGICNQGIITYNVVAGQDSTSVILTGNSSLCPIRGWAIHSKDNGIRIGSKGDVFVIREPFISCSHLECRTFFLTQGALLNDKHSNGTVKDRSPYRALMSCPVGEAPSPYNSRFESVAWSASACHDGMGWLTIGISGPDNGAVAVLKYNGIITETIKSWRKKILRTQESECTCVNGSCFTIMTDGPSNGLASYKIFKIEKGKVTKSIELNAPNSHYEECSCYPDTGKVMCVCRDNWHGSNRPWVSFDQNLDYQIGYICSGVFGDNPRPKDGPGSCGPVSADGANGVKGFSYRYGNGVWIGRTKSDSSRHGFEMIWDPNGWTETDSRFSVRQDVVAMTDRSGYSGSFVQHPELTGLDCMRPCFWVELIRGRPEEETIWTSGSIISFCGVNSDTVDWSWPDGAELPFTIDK

Sequence of Vibro cholerae neuraminidase (P0C6E9 25-781): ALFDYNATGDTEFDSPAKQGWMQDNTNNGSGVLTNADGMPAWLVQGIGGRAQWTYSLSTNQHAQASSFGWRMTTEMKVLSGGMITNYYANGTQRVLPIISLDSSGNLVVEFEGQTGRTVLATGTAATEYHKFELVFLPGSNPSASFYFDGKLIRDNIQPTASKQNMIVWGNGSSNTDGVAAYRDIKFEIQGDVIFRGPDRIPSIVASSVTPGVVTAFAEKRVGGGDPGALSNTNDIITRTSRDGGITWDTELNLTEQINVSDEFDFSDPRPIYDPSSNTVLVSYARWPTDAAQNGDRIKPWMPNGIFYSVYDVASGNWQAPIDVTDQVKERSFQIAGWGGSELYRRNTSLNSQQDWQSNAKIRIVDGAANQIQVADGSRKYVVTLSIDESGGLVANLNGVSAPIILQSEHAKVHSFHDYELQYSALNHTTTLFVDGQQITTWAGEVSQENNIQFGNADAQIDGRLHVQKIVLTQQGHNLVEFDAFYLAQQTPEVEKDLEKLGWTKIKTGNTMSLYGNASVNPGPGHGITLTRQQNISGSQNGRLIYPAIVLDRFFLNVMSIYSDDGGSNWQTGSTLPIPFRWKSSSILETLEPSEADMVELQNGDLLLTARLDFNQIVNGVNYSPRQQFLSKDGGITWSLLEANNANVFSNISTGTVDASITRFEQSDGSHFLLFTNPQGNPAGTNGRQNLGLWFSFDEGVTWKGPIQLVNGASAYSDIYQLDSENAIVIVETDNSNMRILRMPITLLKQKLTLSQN
Sequence of Clostridium perfringens neuraminidase (P10481 whole entry, looked up): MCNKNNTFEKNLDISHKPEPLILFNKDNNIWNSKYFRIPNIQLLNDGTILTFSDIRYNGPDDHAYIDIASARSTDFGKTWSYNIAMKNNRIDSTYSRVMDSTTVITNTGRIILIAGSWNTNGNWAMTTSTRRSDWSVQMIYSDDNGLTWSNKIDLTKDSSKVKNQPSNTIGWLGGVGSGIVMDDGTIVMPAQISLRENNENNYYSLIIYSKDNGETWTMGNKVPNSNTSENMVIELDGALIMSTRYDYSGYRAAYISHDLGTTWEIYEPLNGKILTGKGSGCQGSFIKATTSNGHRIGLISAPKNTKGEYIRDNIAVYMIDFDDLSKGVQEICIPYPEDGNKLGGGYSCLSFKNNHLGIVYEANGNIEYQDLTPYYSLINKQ
Sequence of Bovine serum albumin (BSA) (P02769 25-607): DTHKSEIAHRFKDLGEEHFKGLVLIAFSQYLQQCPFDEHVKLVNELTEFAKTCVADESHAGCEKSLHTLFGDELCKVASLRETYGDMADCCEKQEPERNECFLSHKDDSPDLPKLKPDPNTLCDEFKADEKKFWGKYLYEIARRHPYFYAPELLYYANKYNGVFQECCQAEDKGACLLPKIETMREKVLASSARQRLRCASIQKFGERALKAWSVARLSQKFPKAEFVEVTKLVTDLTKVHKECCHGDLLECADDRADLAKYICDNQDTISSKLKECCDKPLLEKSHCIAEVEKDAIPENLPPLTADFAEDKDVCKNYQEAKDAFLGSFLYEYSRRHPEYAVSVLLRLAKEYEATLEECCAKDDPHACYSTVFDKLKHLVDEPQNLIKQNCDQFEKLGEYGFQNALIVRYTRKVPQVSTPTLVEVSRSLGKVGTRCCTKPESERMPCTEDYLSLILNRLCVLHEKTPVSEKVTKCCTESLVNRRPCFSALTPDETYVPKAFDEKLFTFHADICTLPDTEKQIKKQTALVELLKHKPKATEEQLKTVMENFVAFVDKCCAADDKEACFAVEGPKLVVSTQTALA

| SMILES | inhibitory effect on neuraminidase activity [1] | inhibitory effect on neuraminidase activity [2] | inhibitory effect on neuraminidase activity [3] | IC50 [1] [µM] | capture of influenza A virus on plate wells ([4]; 5 nmol on streptavidin coated plate, virus 3.8×10^2-970×10^2 PFU, anti-Flu A antibody detection) | capture of influenza A virus from a mixture with JEV ([4]; mixture of influenza A virus and JEV, anti-Flu A antibody) | bands on the PVDF membrane (biotinylated neuraminidase isoenzymes) [5] | bands on the PVDF membrane [6] | capture of JEV from a mixture with influenza A virus [7] | capture of influenza A virus relative to influenza A virus pretreated with zanamivir (influenza A virus) [folds] | IC50 [8] [µM] | inhibitory effect on neuraminidase activity ([8]; pH 6.5) |
| --- | --- | --- | --- | --- | --- | --- | --- | --- | --- | --- | --- | --- |
| CC(=O)N[C@H]1[C@H]([C@H](O)[C@H](O)CO)OC(C(=O)O)=C[C@@H]1N=C(N)N [zanamivir, reference compound] | only weak inhibitory effect | only weak inhibitory effect | only weak inhibitory effect |  |  |  |  |  |  |  |  |  |
| CC(=O)N[C@@H]1C(O)CC(Oc2ccc(NC(=O)CCC(=O)NCCCCCCNC(=O)CCCCC3SCC4NC(=O)NC43)cc2C(F)F)(C(=O)O)OC1[C@H](O)[C@H](O)CO (stereo partly drawn) [compound 1] | significant inhibitory effect | significant inhibitory effect | significant inhibitory effect | 530 | successfully captured influenza A virus | captured and detected | three bands | no band was observed | not JEV | 14 | 1700 | significant inhibitory effect |

Source: US20070207971A1 (priority 2006, published 2007)
